Measured values taken from ChEMBL document CHEMBL1138565, “Docking, 3D-QSAR studies and in silico ADME prediction on c-Src tyrosine kinase inhibitors” (Eur J Med Chem, 2009).

What follows are molecules tested against Proto-oncogene tyrosine-protein kinase Src (Homo sapiens, UniProt P12931) (assay: Inhibition of c-Src).
Chain of Proto-oncogene tyrosine-protein kinase Src (P12931 2-536 limits assumed): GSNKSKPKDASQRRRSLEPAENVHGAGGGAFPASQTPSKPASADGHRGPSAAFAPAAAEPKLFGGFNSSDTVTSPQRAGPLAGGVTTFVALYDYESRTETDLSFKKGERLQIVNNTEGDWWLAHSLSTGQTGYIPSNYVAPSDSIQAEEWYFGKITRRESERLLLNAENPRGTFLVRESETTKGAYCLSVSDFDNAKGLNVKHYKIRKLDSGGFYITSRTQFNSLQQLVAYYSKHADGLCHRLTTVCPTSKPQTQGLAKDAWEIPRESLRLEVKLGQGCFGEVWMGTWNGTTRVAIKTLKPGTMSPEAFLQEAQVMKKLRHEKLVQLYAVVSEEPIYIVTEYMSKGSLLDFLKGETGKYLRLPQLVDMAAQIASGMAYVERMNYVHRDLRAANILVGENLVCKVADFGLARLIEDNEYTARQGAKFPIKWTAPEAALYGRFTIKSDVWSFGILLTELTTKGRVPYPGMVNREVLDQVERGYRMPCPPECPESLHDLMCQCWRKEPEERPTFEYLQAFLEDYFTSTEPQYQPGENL
`Nc1ncnc2c1c(-c1ccc(O)cc1)cn2[C@@H]1CN[C@H](CO)C1` gave an IC50 of 50.1 nM. Work on `COc1ccccc1-c1cn(-c2ccccc2)c2ncnc(N)c12` yielded an IC50 of 6310 nM. For `COc1cccc(-c2cn(-c3cccc(CO)c3)c3ncnc(N)c23)c1`, the IC50 was 63.1 nM. `Nc1ncnc2c1c(-c1ccccc1)cn2-c1cccc(CNCCO)c1` showed an IC50 of 10 nM. `Nc1ncnc2c1c(-c1ccccc1)cn2[C@H](CO)c1ccccc1` showed an IC50 of 5010 nM. `CC(C)(C)OC(=O)N1C[C@H](n2cc(-c3ccccc3)c3c(N)ncnc32)C[C@H]1CO` was tested, and the IC50 was 126 nM. `CNc1ncnc2c1c(-c1ccccc1)cn2-c1ccccc1` gave an IC50 of 10000 nM. Work on `Nc1ncnc2c1c(-c1ccccc1)cn2-c1ccc(CNCCO)cc1` yielded an IC50 of 31.6 nM. Molecule `CCOC(=O)C[C@@H]1C[C@H](n2cc(-c3ccc(O)cc3)c3c(N)ncnc32)CN1` has an IC50 of 5.01 nM. For `OC(Cn1ncc2c(NCc3ccc(F)cc3)ncnc21)c1ccccc1` (centres undefined), the Ki was 10000 nM. For `Nc1ncnc2c1c(-c1cccc(Cl)c1)cn2-c1ccccc1`, the IC50 was 200 nM. Work on `Nc1ncnc2c1c(-c1ccccc1)cn2C1CC1` yielded an IC50 of 251 nM. Molecule `COc1cccc(-c2cn(-c3ccc(CNCCO)cc3)c3ncnc(N)c23)c1` has an IC50 of 31.6 nM. For `COc1cccc(-c2cn(-c3ccc(CCN4CCC(O)CC4)cc3)c3ncnc(N)c23)c1`, the IC50 was 20 nM. Work on `COc1cccc(-c2cn(C3CCN(CC(N)=O)CC3)c3ncnc(N)c23)c1` yielded an IC50 of 20 nM. For `Nc1ncnc2c1c(-c1ccccc1)cn2C1CCC1`, the IC50 was 100 nM. `Nc1ncnc2c1c(-c1ccccc1)cn2CCC(CO)CO` gave an IC50 of 2510 nM. Work on `ClC(Cn1ncc2c(NCc3ccccc3)ncnc21)c1ccccc1` (centres undefined) yielded a Ki of 3160 nM. `COc1ccc(-c2cn(C3CCCC3)c3ncnc(N)c23)cc1` gave an IC50 of 79.4 nM. `COC(=O)CN1CCC(n2cc(-c3cccc(OC)c3)c3c(N)ncnc32)CC1` showed an IC50 of 79.4 nM. In the case of `CC(C)(C)OC(=O)N1C[C@@H](n2cc(-c3ccc(O)cc3)c3c(N)ncnc32)C[C@H]1CO`, the IC50 is reported as 316 nM. `Nc1ncnc2c1c(-c1ccccc1)cn2-c1ccccc1CNCCO` was tested, and the IC50 was 5010 nM. `ClC(Cn1ncc2c(NCCc3ccccc3)ncnc21)c1ccccc1` (centres undefined) was tested, and the Ki was 2000 nM. For `COCCN(C)CCN1CCC(n2cc(-c3cccc(OC)c3)c3c(N)ncnc32)CC1`, the IC50 was 50.1 nM. `COc1ccc(-c2cn(C3CCC3)c3ncnc(N)c23)cc1` gave an IC50 of 200 nM. In the case of `Nc1ncnc2c1c(-c1ccccc1)cn2-c1ccccc1`, the IC50 is reported as 100 nM. `Nc1ncnc2c1c(-c1ccccc1)cn2CC(CO)CO` was tested, and the IC50 was 200 nM. `COc1cccc(-c2cn(-c3ccccc3)c3ncnc(N)c23)c1` gave an IC50 of 50.1 nM. With `CCOC(=O)C[C@@H]1C[C@H](n2cc(-c3ccccc3)c3c(N)ncnc32)CN1C(=O)OC(C)(C)C` the IC50 was 5010 nM. `CC(C)(C)OC(=O)N1C[C@H](n2cc(-c3ccc(O)cc3)c3c(N)ncnc32)C[C@H]1CO` showed an IC50 of 25.1 nM. In the case of `CCCNc1ncnc2c1cnn2CC(O)c1ccccc1` (centres undefined), the Ki is reported as 10000 nM. Molecule `CC(C)(C)OC(=O)N1C[C@@H](n2cc(-c3ccccc3)c3c(N)ncnc32)C[C@H]1CO` has an IC50 of 2000 nM. Work on `Clc1ncnc2c1c(-c1ccccc1)cn2-c1ccccc1` yielded an IC50 of 7940 nM. Work on `CCOC(=O)C[C@@H]1C[C@@H](n2cc(-c3ccccc3)c3c(N)ncnc32)CN1` yielded an IC50 of 631 nM. `CCOC(=O)C[C@@H]1C[C@@H](n2cc(-c3ccccc3)c3c(N)ncnc32)CN1C(=O)OC(C)(C)C` showed an IC50 of 398 nM. `Nc1ncnc2c1c(-c1ccc(O)cc1)cn2C1CCCC1` gave an IC50 of 20 nM. Molecule `Nc1ncnc2c1c(-c1ccccc1)cn2C1CCCC1` has an IC50 of 126 nM. `Nc1ncnc2c1c(-c1ccccc1)cn2-c1ccccc1CO` showed an IC50 of 316 nM. `COc1cccc(-c2cn(C3CCCC3)c3ncnc(N)c23)c1` was tested, and the IC50 was 2 nM. `Nc1ncnc2c1c(-c1ccccc1)cn2[C@H]1CN[C@H](CO)C1` showed an IC50 of 316 nM. In the case of `Nc1ncnc2c1c(-c1ccccc1)cn2-c1ccc(CO)cc1`, the IC50 is reported as 20 nM. `O=c1[nH]cnc2c1c(-c1ccccc1)cn2-c1ccccc1` was tested, and the IC50 was 10000 nM. `Nc1ncnc2c1c(-c1ccc(O)cc1)cn2C1CCC1` gave an IC50 of 10 nM. Molecule `Nc1ncnc2c1c(-c1ccccc1)cn2[C@@H]1CN[C@H](CO)C1` has an IC50 of 126 nM. `COc1cccc(-c2cn(-c3ccc(CC(=O)NCCO)cc3)c3ncnc(N)c23)c1` was tested, and the IC50 was 20 nM. With `CCOC(=O)C[C@@H]1C[C@@H](n2cc(-c3ccc(O)cc3)c3c(N)ncnc32)CN1C(=O)OC(C)(C)C` the IC50 was 31.6 nM. `Nc1ncnc2c1c(-c1ccccc1)cn2-c1cccc(CO)c1` gave an IC50 of 63.1 nM. `O=C(O)c1cnc2c(cnn2/C=C/c2ccccc2)c1NCc1ccccc1` gave a Ki of 3980 nM. For `CSc1nc(Nc2cccc(Cl)c2)c2cnn(CC(Cl)c3ccccc3)c2n1` (centres undefined), the Ki was 794 nM. Molecule `Nc1ncnc2c1c(-c1ccccc1)cn2[C@@H](CO)c1ccccc1` has an IC50 of 501 nM. `OCCNCCOc1ccc(-n2cc(-c3cccc(O)c3)c3cncnc32)cc1` was tested, and the IC50 was 39.8 nM. `Nc1ncnc2c1c(-c1ccc(O)cc1)cn2[C@H]1CN[C@H](CO)C1` was tested, and the IC50 was 100 nM. `COc1cccc(-c2cn(C3CCC3)c3ncnc(N)c23)c1` showed an IC50 of 39.8 nM. Molecule `COc1cccc(-c2cn(C3CCN(CCN(C)CCO)CC3)c3ncnc(N)c23)c1` has an IC50 of 6.31 nM. `CCOC(=O)C[C@@H]1C[C@H](n2cc(-c3ccc(O)cc3)c3c(N)ncnc32)CN1C(=O)OC(C)(C)C` showed an IC50 of 316 nM. `CCOC(=O)C[C@@H]1C[C@H](n2cc(-c3ccccc3)c3c(N)ncnc32)CN1` showed an IC50 of 15.8 nM. For `CN(C)C(=O)CN1CCC(n2cc(-c3cccc(O)c3)c3c(N)ncnc32)CC1`, the IC50 was 3.16 nM. With `COC(=O)CN1CCC(n2cc(-c3cccc(O)c3)c3c(N)ncnc32)CC1` the IC50 was 1 nM. `Nc1ncnc2c1c(-c1cccc(O)c1)cn2C1CCC1` showed an IC50 of 3.98 nM. Molecule `COc1ccc(-c2cn(-c3ccccc3)c3ncnc(N)c23)cc1` has an IC50 of 158 nM. In the case of `CCOC(=O)c1ccc(-c2cn(-c3ccccc3)c3ncnc(N)c23)cc1`, the IC50 is reported as 10000 nM. `COc1cccc(-c2cn(-c3ccc(CCN(C)CCO)cc3)c3ncnc(N)c23)c1` showed an IC50 of 31.6 nM. For `CCOC(=O)C[C@@H]1C[C@@H](n2cc(-c3ccc(O)cc3)c3c(N)ncnc32)CN1`, the IC50 was 100 nM. In the case of `Nc1ncnc2c1c(-c1ccccc1)nn2-c1ccccc1`, the IC50 is reported as 501 nM. In the case of `COc1cccc(-c2cn(C3CCN(CC(=O)N(C)C)CC3)c3ncnc(N)c23)c1`, the IC50 is reported as 63.1 nM. For `Nc1ncnc2c1c(-c1ccc(O)cc1)cn2CC(CO)CO`, the IC50 was 501 nM. `COc1cccc(-c2cn(CC(CO)CO)c3ncnc(N)c23)c1` gave an IC50 of 316 nM. For `Nc1ncnc2c1c(-c1cccc(O)c1)cn2C1CCCC1`, the IC50 was 1 nM. In the case of `COc1cccc(-c2cn(C3CCN(CCO)CC3)c3ncnc(N)c23)c1`, the IC50 is reported as 25.1 nM.
